Calls of active or inactive are those of the source. The rule behind the calls is not given here.
Experiments:
[1] = Cmax in Sprague-Dawley rat at 8 mg/kg,iv and measured upto 24 hrs by LC-MS/MS analysis; type: ADME, organism-based; design: time < 24 hrs, dose 8 mg/kg, route iv; settings: in vivo
Mus musculus [2] = assay: Anti-colitis activity against DSS-induced ulcerative colitis C57BL/6 mouse model assessed as downregulation of IL10 mRNA expression level in colon at 6.25 to 25 mg/kg, po for 10 days consecutively by qPCR assay; type: functional, organism-based; settings: dose 6.25-25 mg/kg, time 10.0 day
Mus musculus [3] = assay: Anti-colitis activity against DSS-induced ulcerative colitis C57BL/6 mouse model assessed as decrease in IL-1beta mRNA expression level in colon at 12.5 to 25 mg/kg, po for 10 days consecutively by qPCR analysis; type: functional, organism-based; settings: dose 12.5-25 mg/kg, time 10.0 day
Mus musculus [4] = assay: Anti-colitis activity against TNBS-induced ulcerative colitis BALB/c mouse model assessed as decrease in mucosal damage in colon at 12.5 to 25 mg/kg, po for consecutive 7 days by H and E staining based microscopy; type: functional, organism-based; settings: dose 12.5-25 mg/kg, time 7.0 day
Mus musculus [5] = assay: Anti-colitis activity against DSS-induced ulcerative colitis C57BL/6 mouse model assessed as downregulation of IL10 mRNA expression level in mesenteric lymph nodes at 6.25 to 25 mg/kg, po for 10 days consecutively by qPCR assay; type: functional, organism-based; settings: dose 6.25-25 mg/kg, time 10.0 day
[6] = Clearance in Sprague-Dawley rat at 8 mg/kg,iv and measured upto 24 hrs by LC-MS/MS analysis; type: ADME, organism-based; settings: in vivo
Mus musculus [7] = assay: Anti-colitis activity against DSS-induced ulcerative colitis C57BL/6 mouse model assessed as decrease in TNF-alpha mRNA expression level in colon at 12.5 to 25 mg/kg, po for 10 days consecutively by qPCR analysis; type: functional, organism-based; settings: dose 12.5-25 mg/kg, time 10.0 day
[8] = Toxicity in C57BL/6 mouse assessed as histological change in spleen at 6.25 to 25 mg/kg, po for 10 days consecutively by H and E staining based microscopy; type: organism-based; settings: in vivo, 240 h, dose 6.25-25 mg/kg, time 10 day
Mus musculus [9] = assay: Anti-colitis activity against DSS-induced ulcerative colitis C57BL/6 mouse model assessed as downregulation of IL17a mRNA expression level in spleen at 12.5 to 25 mg/kg, po for 10 days consecutively by qPCR assay; type: functional, organism-based; settings: dose 12.5-25 mg/kg, time 10.0 day
Pyruvate kinase PKM = Pyruvate kinase PKM (Homo sapiens, UniProt P14618); assay: Covalent binding affinity to recombinant human PKM2 at Cys424 residue at 20 uM incubated for 120 mins by LC-MS/MS analysis; settings: filed as activator
Pyruvate kinase PKM, sequence (P14618 2-531 limits assumed): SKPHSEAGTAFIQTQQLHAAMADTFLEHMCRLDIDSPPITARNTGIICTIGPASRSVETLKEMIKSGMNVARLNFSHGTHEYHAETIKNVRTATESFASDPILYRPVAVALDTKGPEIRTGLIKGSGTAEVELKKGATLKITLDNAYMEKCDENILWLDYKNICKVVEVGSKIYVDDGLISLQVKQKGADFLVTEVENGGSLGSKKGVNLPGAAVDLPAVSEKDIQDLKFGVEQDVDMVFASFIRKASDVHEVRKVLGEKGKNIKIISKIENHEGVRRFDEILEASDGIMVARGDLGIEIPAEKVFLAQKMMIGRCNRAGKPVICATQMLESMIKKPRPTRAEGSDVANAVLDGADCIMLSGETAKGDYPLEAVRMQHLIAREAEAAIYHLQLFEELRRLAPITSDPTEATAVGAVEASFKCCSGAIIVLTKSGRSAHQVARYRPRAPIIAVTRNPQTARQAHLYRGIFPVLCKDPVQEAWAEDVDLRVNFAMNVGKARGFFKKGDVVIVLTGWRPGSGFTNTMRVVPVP

CD4+ve Th [10] = assay: (§1) Inhibition of aerobic glycolysis in anti-CD3/CD28 stimulated C57BL/6 mouse mesenteric lymph node CD4+ve Th cells assessed as reduction in glucose utilization by measuring glucose level at 0.3 to 3 uM incubated for 96 hrs in presence of recombinant human TGF-beta, recombinant mouse IL-6 and recombinant mouse IL-23 by colorimetric analysis; type: functional, cell-based; settings: dose 0.3-3 µM
T-cell = assay: Immunomodulatory activity in C57BL/6 mouse mesenteric lymph node T cells assessed as inhibition of concanavalin A stimulated T-cell proliferation incubated for 68 hrs by CCK-8 assay; type: functional, cell-based; settings: C57BL/6, T-cell
[11] = Protein binding in rat plasma assessed as bound fraction; type: ADME, cell-free; settings: read-out: PPB (converted)
[12] = Microsomal stability in rat liver microsomes assessed as hepatic clearance; type: ADME, Microsome
CD4+ve Th [13] = assay: (§2) Inhibition of Th17 cells differentiation in anti-CD3/CD28 stimulated C57BL/6 mouse mesenteric lymph node CD4+ve Th cells assessed as decrease in total PKM2 expression at 0.1 to 3 uM incubated for 96 hrs in presence of recombinant human TGF-beta, recombinant mouse IL-6 and recombinant mouse IL-23 by Western blot analysis; type: functional, cell-based; settings: dose 0.1-3 µM
[14] = Toxicity in C57BL/6 mouse assessed as histological change in lung at 6.25 to 25 mg/kg, po for 10 days consecutively by H and E staining based microscopy; type: organism-based; settings: in vivo, 240 h, dose 6.25-25 mg/kg, time 10 day
[15] = as §2, with “proportion of IL17A-positive Th17 cells” for “total PKM2 expression”, “at” for “at 0.1 to”, “flow cytometry (Rvb= 16.7%)” for “Western blot analysis”; type: functional; settings: C57BL/6, CD4+ve Th
CD4+ve Th [16] = assay: Inhibition of Treg cells differentiation in anti-CD3/CD28 stimulated C57BL/6 mouse mesenteric lymph node CD4+ve Th cells assessed as change in IL10 mRNA expression level cells at 0.1 to 3 uM incubated for 96 hrs in presence of recombinant human TGF-beta by qPCR analysis; type: functional, cell-based; settings: dose 0.1-3 µM
CD4+ve Th [17] = assay: as §2, with “downregulation of IL23r mRNA” for “decrease in total PKM2”, “expression level” for “expression”, “qPCR” for “Western blot”; type: functional, cell-based; settings: dose 0.1-3 µM
[18] = Half life in Sprague-Dawley rat at 75 mg/kg,po and measured upto 24 hrs by LC-MS/MS analysis; type: ADME, organism-based; settings: in vivo
[19] = Toxicity in C57BL/6 mouse assessed as histological change in kidney at 6.25 to 25 mg/kg, po for 10 days consecutively by H and E staining based microscopy; type: organism-based; settings: in vivo, 240 h, dose 6.25-25 mg/kg, time 10 day
CD4+ve Th [20] = assay: Cytotoxicity against C57BL/6 mouse mesenteric lymph node CD4+ve Th cells assessed as reduction in cell viability at 0.3 to 3 uM incubated for 96 hrs by MTT assay; type: toxicity, cell-based; settings: dose 0.3-3 µM
[21] = Toxicity in C57BL/6 mouse assessed as histological change in heart at 6.25 to 25 mg/kg, po for 10 days consecutively by H and E staining based microscopy; type: organism-based; settings: in vivo, 240 h, dose 6.25-25 mg/kg, time 10 day
[22] = Inhibition of Treg cells differentiation in anti-CD3/CD28 stimulated C57BL/6 mouse mesenteric lymph node CD4+ve Th cells assessed as decrease in proportion of Foxp3-positive Treg cells at 0.1 uM incubated for 96 hrs in presence of recombinant human TGF-beta by flow cytometry (Rvb= 21.1%); type: functional; settings: C57BL/6, CD4+ve Th
Mus musculus [23] = assay: Anti-colitis activity against DSS-induced ulcerative colitis C57BL/6 mouse model assessed as decrease in percentage of Th17 cells in colonic lamina propria at 12.5 to 25 mg/kg, po for 10 days consecutively by flow cytometry; type: functional, organism-based; settings: dose 12.5-25 mg/kg, time 10.0 day
CD4+ve Th [24] = assay: as §1, with “downregulation of Glut1 mRNA expression” for “reduction in glucose utilization by measuring glucose”, “qPCR” for “colorimetric”; type: functional, cell-based; settings: dose 0.3-3 µM
CD4+ve Th [25] = assay: as §1, with “uptake” for “utilization by measuring glucose”, “NBDG staining based immunofluorescence” for “colorimetric”; type: functional, cell-based; settings: dose 0.3-3 µM
Mus musculus [26] = assay: Anti-colitis activity against DSS-induced ulcerative colitis C57BL/6 mouse model assessed as downregulation of RORC mRNA expression level in colon at 12.5 to 25 mg/kg, po for 10 days consecutively by qPCR assay; type: functional, organism-based; settings: dose 12.5-25 mg/kg, time 10.0 day
[27] = Toxicity in C57BL/6 mouse assessed as histological change in liver at 6.25 to 25 mg/kg, po for 10 days consecutively by H and E staining based microscopy; type: organism-based; settings: in vivo, 240 h, dose 6.25-25 mg/kg, time 10 day
[28] = MRT(t) in Sprague-Dawley rat at 8 mg/kg,iv and measured upto 24 hrs by LC-MS/MS analysis; type: ADME, organism-based; settings: in vivo
Mus musculus [29] = assay: Anti-colitis activity against DSS-induced ulcerative colitis C57BL/6 mouse model assessed as reduction in disease activity index (DAI) score at 12.5 to 25 mg/kg, po for 10 days consecutively; type: functional, organism-based; settings: dose 12.5-25 mg/kg, time 10.0 day

Cmax [1]: 190 ng/mL
clearance [6]: 103 mL/min/kg
Activity (Pyruvate kinase PKM): Active
fraction unbound [11]: 0.201
CLhep predicted [12]: 43.1 mL/min/kg
half-life [18]: 480 min
MRT last at 24 h [28]: 5 h
Compound: C=C1C(=O)O[C@H]2[C@H]1CC[C@@]1(C)[C@@H](CC[C@@]3(C)O[C@@H]23)C1(F)F
Activity (Mus musculus [2]): inactive
Activity (Mus musculus [3]): Active
Activity (Mus musculus [4]): Active
Activity (Mus musculus [5]): inactive
Activity (Mus musculus [7]): Active
Activity [8]: Non-Toxic
Activity (Mus musculus [9]): Active
inhibition (CD4+ve Th [10]): Active
IC50 (T-cell): 590 nM
inhibition (CD4+ve Th [13]): Active
Activity [14]: Non-Toxic
IL17A+ cells at 3 µM [15]: 4.26%
inhibition (CD4+ve Th [16]): inactive
inhibition (CD4+ve Th [17]): Active
Activity [19]: Non-Toxic
Activity (CD4+ve Th [20]): Non-Toxic
Activity [21]: Non-Toxic
Foxp3+ cells at 0.1 µM [22]: 20.3%
Activity (Mus musculus [23]): Active
inhibition (CD4+ve Th [24]): Active
inhibition (CD4+ve Th [25]): Active
Activity (Mus musculus [26]): Active
Activity [27]: Non-Toxic
Activity (Mus musculus [29]): Active
